Experiments:
Type in all cases: in vivo, male Sprague-Dawley I.O.P.S. rats
[1] = Systemic activity after local administration: effect on weight gain
Experimental: (§1) The pharmacological activity of the products described in the invention was tested in the rat using a technique similar to that described by C. A. Winter and C. C. Porter (J. Am. Pharm. Ass. 1957, 46, 9, pages 515-519).
(§2) The principle of the test consists in implanting a pellet of cotton wool in the dorsal subcutaneous tissue of the animal. The corticoids to be studied are added to the pellet so that the following tests can be carried out:
(§3) (2) Determination of the systemic activity of the products after local administration
(§4) Local application of the corticoids may result, inter alia, in:
(b) Disruption of the protein metabolism which causes tissue fusion, resulting in an inhibition of the weight increase in animals.
(§5) The animals are divided into random homogeneous groups of 10 male Sprague-Dawley I.O.P.S. rats with a body weight of between 100 and 120 grams.
(§6) The pellets to be implanted weigh from 35 to 40 mg and are prepared from balls of dental cotton wool. Before being inserted, each pellet is weighed and impregnated with the precise quantity of the product which is to be studied, dissolved in 0.2 ml of chloroform. The chloroform is eliminated by evaporation over a period of 24 hours at ambient temperature.
(§7) Before implantation, each pellet is impregnated with a solution of antibiotics:
(§8) The animals are anaesthetised with ether, and then two pellets are implanted in each animal in the dorsal subcutaneous tissue, on each side of the median line:
(§9) on the left, the pellet containing the product to be tested (treated animal) or the carrier only (control animal);
(§10) on the right, the pellet containing the carrier only.
(§11) The animals are given normal food and are sacrificed six days after the pellets have been implanted.
(b) Effect on weight gain
The weight gain over six days is determined on the animals before they are sacrificed.
The activity of the products was expressed as the percentage inhibition in the weight gain of the treated animals compared with the weight gain in the control animals.
The ED 30 which corresponds to a 30% inhibition in the weight gain was determined.

granuloma = experiment: Local anti-inflammatory activity: inhibition of granuloma formation around implanted cotton wool pellet; settings: for R 1 (relative local anti-inflammatory activity compared with betamethasone 17,21-dipropionate): D.P.B. = 1, calculated from ED50; for R 1 (relative local anti-inflammatory activity compared with betamethasone 17,21-dipropionate) / ED50 (local anti-inflammatory activity, 50% inhibition in granuloma weight): Table 1; for ED50 (local anti-inflammatory activity, 50% inhibition in granuloma weight): rat, cotton pellet granuloma, six days after implantation
Experimental: A. Winter and C. C. Porter (J. Am. Pharm. Ass. 1957, 46, 9, pages 515-519).
as §2
(1) Determination of the local anti-inflammatory activity
The presence of products within the pellet may inhibit or prevent the formation of a granuloma.
as §5, §6, §7
Streptomycin 0.1 gram/ml.
as §8, §9, §10, §11
(1) Local anti-inflammatory activity
The pellets surrounded by granulomatous tissue are carefully removed and weighed, and then dried until a constant weight is obtained.
The relative activity of the test products compared with betamethasone 17,21-dipropionate is calculated according to the following equation: [formula]

thymus = experiment: Systemic activity after local administration: effect on the weight of the thymus
Experimental: as §1, §2, §3, §4
(a) a reduction in the defence systems of the organism, the most notable sign of which is a reduction in the weight of the animals' thymuses.
as §5, §6, §7, §8, §9, §10, §11
(2) Determination of the systemic effect
The thymuses are taken from the same animals and weighed. Using the same type of calculation, an ED 50 is determined, which corresponds to the dosage of product resulting in a 50% decrease in weight of the thymuses, compared with the control animals.

[2] = D.P.B. = 1, calculated from ED30, Table 3
[3] = rat, local application, weight gain over six days, Table 3
[4] = D.P.B. = 1, calculated from ED50, Table 2
[5] = rat, local application, six days, Table 2

R 3 (relative activity on weight gain compared with D.P.B.) [1, 2]	ED30 (30% inhibition in the weight gain) [1, 3] [mg/pellet]	R 2 (relative effect on thymus weight compared with D.P.B.) (thymus; [4])	ED50 (50% decrease in weight of the thymuses) (thymus; [5])	Compound	R 1 (relative local anti-inflammatory activity compared with betamethasone 17,21-dipropionate) (granuloma)	ED50 (local anti-inflammatory activity, 50% inhibition in granuloma weight) (granuloma) [mg/pellet]	ED30 (30% inhibition in the weight gain) ([1]; rat, in vivo, 8640 min) [mg/pellet]	R 3 (relative activity on weight gain compared with D.P.B.) ([1]; rat, in vivo, 8640 min)	ED50 (50% decrease in weight of the thymuses) (thymus; rat, in vivo)	R 2 (relative effect on thymus weight compared with D.P.B.) (thymus; rat, in vivo, 8640 min)	ED50 (50% decrease in weight of the thymuses) (thymus; rat, in vivo, 8640 min) [mg/pellet]	activity compared with betamethasone 17,21-dipropionate (times greater) (granuloma; local anti-inflammatory test)
0.16	5	0.27	3.1 mg/pellet	CCC(=O)OCC(=O)[C@@]1(OC(=O)CC)[C@@H](C)C[C@H]2[C@@H]3CCC4=CC(=O)C=C[C@]4(C)[C@@]3(Cl)[C@@H](O)C[C@@]21C [Beclomethasone dipropionate, beclomethasone 17,21-dipropionate, reference compound]	< 0.2	> 5						
1	> 0.8	1	0,86 mg/pellet	CCC(=O)OCC(=O)C1(OC(=O)CC)C(C)CC2C3CCC4=CC(=O)C=CC4(C)C3(F)C(O)CC21C (stereo not shown) [D.P.B., betamethasone 17,21-dipropionate, reference compound]	1	1.610						
				CCCCC(=O)O[C@]1(C(=O)CSC(=O)CCCC)CC[C@H]2[C@@H]3CCC4=CC(=O)CC[C@]4(C)[C@H]3[C@@H](O)C[C@@]21C [Ex. 1, 11β-hydroxy-pregn-4-ene-3,20-dione (or hydrocortisone) 17-valerate, 21-thiovalerate]	> 8	< 0.200	> 3.2	< 0.25	zero to 3.2	< 0.27		
				CCCCC(=O)O[C@]1(C(=O)CSC(=O)C(C)(C)C)CC[C@H]2[C@@H]3CCC4=CC(=O)CC[C@]4(C)[C@H]3[C@@H](O)C[C@@]21C [Ex. 2, 11β-hydroxy-pregn-4-ene-3,20-dione (or hydrocortisone) 17-valerate, 21-thiopivalate]	0.75	2.140	> 3.4	< 0.24	zero to 3.4	< 0.25		
				CCCC(=O)O[C@]1(C(=O)CSC(C)=O)CC[C@H]2[C@@H]3CCC4=CC(=O)C=C[C@]4(C)[C@H]3C(=O)C[C@@]21C [Ex. 3, Pregna-1,4-diene-3,11,20-trione (or prednisone) 17-butyrate, 21-thioacetate]	2.7	0.600	> 5	< 0.16		< 0.17	> 5	
				CC(=O)SCC(=O)[C@@]1(OC(=O)c2ccccc2)CC[C@H]2[C@@H]3C[C@H](C)C4=CC(=O)C=C[C@]4(C)[C@H]3[C@@H](O)C[C@@]21C [Ex. 4, 11β-hydroxy-6α-methyl-pregna-1,4-diene-3,20-dione (or 6β-methylprednisolone) 17-benzoate, 21-thioacetate]	29	0.056	> 5	< 0.16		< 0.17	> 5	
				CCC(=O)O[C@]1(C(=O)CSC(=O)CC)CC[C@H]2[C@@H]3C[C@H](C)C4=CC(=O)C=C[C@]4(C)[C@H]3[C@@H](O)C[C@@]21C [Ex. 5, 11β-hydroxy-6α-methyl-pregna-1,4-diene-3,20-dione (or 6α-methylprednisolone) 17-propionate, 21-thiopropionate]	7.7	0.210	> 1	< 0.8		< 0.86	> 1	
				CCCCC(=O)O[C@]1(C(=O)CSC(=O)CCCC)CC[C@H]2[C@@H]3C[C@H](C)C4=CC(=O)C=C[C@]4(C)[C@H]3[C@@H](O)C[C@@]21C [Ex. 6, 11β-hydroxy-6α-methyl-pregna-1,4-diene-3,20-dione (or 6α-methylprednisolone) 17-valerate, 21-thiovalerate]	8.9	0.180	> 1	< 0.8		< 0.86	> 1	
				CCCCC(=O)O[C@]1(C(=O)CSC(C)=O)CC[C@H]2[C@@H]3C[C@H](C)C4=CC(=O)C=C[C@]4(C)[C@H]3[C@@H](O)C[C@@]21C [Ex. 7, 11β-hydroxy-6α-methyl-pregna-1,4-diene-3,20-dione (or 6α-methylprednisolone) 17-valerate, 21-thioacetate]	2.0	0.800	> 1	< 0.8		< 0.86	> 1	
				CC(=O)OC1(C(=O)CSC(C)=O)C(C)CC2C3CCC4=CC(=O)C=CC4(C)C3(F)C(O)CC21C (stereo not drawn) [Ex. 8, 9α-fluoro-11β-hydroxy-16β-methyl-pregna-1,4-diene-3,20-dione (or betamethasone) 17-acetate, 21-thioacetate]	22	0.072	1	0.8		0.71	1.20	
				CCC(=O)SCC(=O)C1(OC(C)=O)C(C)CC2C3CCC4=CC(=O)C=CC4(C)C3(F)C(O)CC21C (stereo not drawn) [Ex. 9, 9α-fluoro-11β-hydroxy-16β-methyl-pregna-diene-3,20-dione (or betamethasone) 17-acetate, 21-thiopropionate]	16	0.100	1	0.8		0.51	1.70	
				CCC(=O)OC1(C(=O)CSC(C)=O)C(C)CC2C3CCC4=CC(=O)C=CC4(C)C3(F)C(O)CC21C (stereo not drawn) [Ex. 10, 9α-fluoro-11β-hydroxy-16β-methyl-pregna-1,4-diene-3,20-dione (or betamethasone) 17-propionate, 21-thioacetate]	124	0.013	> 1	< 0.8		3.40	0.25	more than 100 times

— patent publication US4427671A, “Steroids esterified in position 17 and thioesterified in position 21, a process for preparing them and their use as medicaments” (priority 1981, dated 1984)
